# Data taken from patent publication US9359311B2, “Substituted aromatic oligomers” (NEUROSCIOS GMBH, priority 2011, dated 2016).
# Key:
# biotinylated Aβ1-42 = target: T1, biotinylated Aβ1-42 (Homo sapiens, UniProt P05067); assay: Inhibition of Abeta oligomerisation (biotinylated Aβ1-42, neutravidin plate, streptavidin-HRP); format: biochemical; conditions: inhibition of Aβ1-42 aggregation, approximately 12 nM Aβ1-42, PBS pH 7.4, 2% DMSO, 30 min RT
# T1 construct: To assure monomerisation of biotinylated Aβ1-42 (Anaspec #23523-0.5) the peptide was thoroughly monomerised; purchased Anaspec 23523-0.5
# primary chicken neurons = assay: Inhibition of Abeta 1-42 toxicity on primary chicken neurons (MTT); format: cell-based; design: key: No: no effect; +: minor positive effect on cell viability in the presence of aggregated Aβ 1-42; ++: medium positive effect on cell viability in the presence of aggregated Aβ 1-42; +++: strong positive effect on cell viability in the presence of aggregated Aβ 1-42
# Experimental: One-day-old fertilized eggs are stored under appropriate conditions until start of breeding. On embryonic day 0 eggs are transferred to the breeding incubator and under turning, kept at 37.8° C. and 55% humidity until embryonic day eight. Neurons are prepared as follows: In short, embryos are transferred to a plastic dish, and decapitated. Both brain hemispheres are removed, collected and any loose tissue removed. Hemispheres are mechanically dissociated and 4.8×10^4 cells per well (96-well plates) are seeded in a volume of 160 μl.
# Aβ1-42 (MW 4514.1) was obtained from American Peptide Company as a lyophilized powder. A stock solution of 340 μM Aβ1-42 was prepared in 50 mM Tris-Buffer, 150 mM NaCl, pH7.6 according to the manufacturer's instructions. After sonication, the stock solution is diluted 1:1 with the test compounds to obtain a concentration of 170, 17 and 1.7 μM. After aggregation at 4° C. for 48 h, the solutions are sonicated again prior to application to the cells. The final concentration of Aβ1-42 applied to the primary chicken neurons is 10 μM.
# Aβ1-42 aggregated together with compound for 48 hrs was applied to chicken neurons at DIV4 (days in vitro) and analyzed at DIV10 (144 hrs) and all others were applied to chicken neurons at DIV6 and analysed at DIV10 (96 hrs).
# Viability of cultures is determined by the MTT assay. The MTT assay allows for the measurement of the mitochondrial dehydrogenase activity which reduces yellow MTT to dark blue formazan crystals. Since this reaction is catalyzed in living cells only this assay is used for the determination of cell viability. MTT solution is added to each well in a final concentration of 0.5 mg/ml. After 2 hours the MTT containing medium is aspired. Cells are lysed in 3% SDS and the formazan crystals are dissolved in isopropanol/HCl. Optical density is measured with a plate-reader at wavelength 570 nm. Cell survival rate is expressed as a percentage of optical density (OD) relative to control cells not treated with Aβ or compound.
# prion = conditions: Ref: JBC doi: 10.1074/jbc.M112.355958; cited from earlier work
# [1] = Conc. 0.1 μM, 10 μM Aβ1-42 aggregated together with compound for 48 h
# [2] = Conc. 1 μM, 10 μM Aβ1-42 aggregated together with compound for 48 h
# [3] = Conc. 10 μM, 10 μM Aβ1-42 aggregated together with compound for 48 h
# T1 sequence (P05067 672-713 limits assumed): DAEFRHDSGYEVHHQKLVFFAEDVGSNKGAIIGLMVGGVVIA
Compound,IC50 (biotinylated Aβ1-42),Rescue of Abeta toxicity (MTT) (primary chicken neurons; [1]),Rescue of Abeta toxicity (MTT) (primary chicken neurons; [2]),Rescue of Abeta toxicity (MTT) (primary chicken neurons; [3]),"Rescue of Abeta toxicity (MTT) (primary chicken neurons; Conc. 5 μM, 10 μM Aβ1-42)",pIC50 (biotinylated Aβ1-42),anti-prion potential (prion)
"O=C(O)Cc1cc(-c2ccc(-c3ccc(C(=O)O)s3)s2)sc1-c1ccc(-c2sc(-c3ccc(-c4ccc(C(=O)O)s4)s3)cc2CC(=O)O)s1 [Example 18, 5-{5-[4-(Carboxymethyl)-5-{5-[3-(carboxymethyl)-5-[5-(5-carboxythiophen-2-yl)thiophen-2-yl]thiophen-2-yl]thiophen-2-yl}thiophen-2-yl]thiophen-2-yl}thiophene-2-carboxylic acid]",1260 nM,++,+,no,–,–,–
"O=C(O)Cc1ccccc1-c1ccc(-c2cc(CC(=O)O)c(-c3ccc(-c4sc(-c5ccc(-c6ccccc6CC(=O)O)s5)cc4CC(=O)O)s3)s2)s1 [Example 56, 2-(2-{5-[3-(Carboxymethyl)-5-{5-[2-(carboxymethyl)phenyl]thiophen-2-yl}thiophen-2-yl]thiophen-2-yl}-5-{5-[2-(carboxymethyl)phenyl]thiophen-2-yl}thiophen-3-yl)acetic acid]",3160 nM,+,+++,+++,–,–,–
"CS(=O)(=O)c1ccc(-c2cc(CC(=O)O)c(-c3ccc(-c4sc(-c5ccc(S(C)(=O)=O)cc5)cc4CC(=O)O)s3)s2)cc1 [Example 16, 2-(2-{5-[3-(Carboxymethyl)-5-(4-methanesulfonylphenyl)thiophen-2-yl]thiophen-2-yl}-5-(4-methanesulfonylphenyl)thiophen-3-yl)acetic acid]",5010 nM,–,+++,+++,–,–,–
"O=C(O)c1ccc(-c2cc(CCO)c(-c3ccc(-c4sc(-c5ccc(C(=O)O)s5)cc4CCO)s3)s2)s1 [Example 5, 5-(5-{5-[5-(5-Carboxythiophen-2-yl)-3-(2-hydroxyethyl)thiophen-2-yl]thiophen-2-yl}-4-(2-hydroxyethyl)thiophen-2-yl)thiophene-2-carboxylic acid]",3980 nM,no,++,+,–,–,–
"O=C(O)Cc1ccsc1-c1ccc(-c2sc(-c3ccc(-c4cc(CC(=O)O)c(-c5ccc(-c6sccc6CC(=O)O)s5)s4)cc3)cc2CC(=O)O)s1 [Example 33, 2-(2-{5-[3-(Carboxymethyl)-5-{4-[4-(carboxymethyl)-5-{5-[3-(carboxymethyl)thiophen-2-yl]thiophen-2-yl}thiophen-2-yl]phenyl}thiophen-2-yl]thiophen-2-yl}thiophen-3-yl)acetic acid]",794 nM,no,++,no,–,–,–
"O=C(O)Cc1cc(C(=O)c2ccccc2)sc1-c1ccc(-c2sc(C(=O)c3ccccc3)cc2CC(=O)O)s1 [Example 95, 2-(5-benzoyl-2-{5-[5-benzoyl-3-(carboxymethyl)thiophen-2-yl]thiophen-2-yl}thiophen-3-yl)acetic acid]",–,no,no,+++,–,–,–
"O=C(O)Cc1ccsc1-c1ccc(-c2sc(-c3cccc(-c4cc(CC(=O)O)c(-c5ccc(-c6sccc6CC(=O)O)cc5)s4)c3)cc2CC(=O)O)cc1 [Example 39, 2-(5-{3-[4-(Carboxymethyl)-5-{4-[3-(carboxymethyl)thiophen-2-yl]phenyl}thiophen-2-yl]phenyl}-2-{4-[3-(carboxymethyl)thiophen-2-yl]phenyl}thiophen-3-yl)acetic acid]",794 nM,+,+,no,–,–,–
"Nc1c(/N=N/c2ccc(-c3ccc(/N=N/c4cc(S(=O)(=O)O)c5ccccc5c4N)cc3)cc2)cc(S(=O)(=O)O)c2ccccc12 [Congo Red, reference compound]",1580 nM,–,–,–,++,–,–
"CS(=O)(=O)c1ccc(-c2ccc(-c3sc(-c4cc(CC(=O)O)c(-c5ccc(-c6ccc(S(C)(=O)=O)cc6)s5)s4)cc3CC(=O)O)s2)cc1 [Example 50, 2-{5-[4-(Carboxymethyl)-5-[5-(4-methanesulfonylphenyl)thiophen-2-yl]thiophen-2-yl]-2-[5-(4-methanesulfonylphenyl)thiophen-2-yl]thiophen-3-yl}acetic acid]",2510 nM,no,+++,+++,–,–,–
"O=C(O)Cc1cc(-c2ccc(-c3cc(CC(=O)O)c(-c4ccc(C(=O)O)s4)s3)s2)sc1-c1ccc(C(=O)O)s1 [Example 6, 5-[3-(Carboxymethyl)-5-{5-[4-(carboxymethyl)-5-(5-carboxythiophen-2-yl)thiophen-2-yl]thiophen-2-yl}thiophen-2-yl]thiophene-2-carboxylic acid]",7940 nM,++,+,+++,–,–,–
"O=C(O)Cc1cc(-c2cccs2)sc1-c1ccc(-c2sc(-c3cccs3)cc2CC(=O)O)s1 [p-HTAA, reference compound]",–,–,–,–,–,5.7,pronounced anti-prion potential
"O=C(O)Cc1cc(C(=O)c2cccs2)sc1-c1ccc(-c2sc(C(=O)c3cccs3)cc2CC(=O)O)s1 [Example 93, 2-(2-{5-[3-(carboxymethyl)-5-(thiophene-2-carbonyl)thiophen-2-yl]thiophen-2-yl}-5-(thiophene-2-carbonyl)thiophen-3-yl)acetic acid]",–,+,++,+++,–,–,–
"O=C(O)Cc1ccccc1-c1cc(CC(=O)O)c(-c2ccc(-c3sc(-c4ccccc4CC(=O)O)cc3CC(=O)O)s2)s1 [Example 47, 2-(2-{5-[3-(Carboxymethyl)-5-[2-(carboxymethyl)phenyl]thiophen-2-yl]thiophen-2-yl}-5-[2-(carboxymethyl)phenyl]thiophen-3-yl)acetic acid]",–,+++,+++,+++,–,–,–
"O=C(O)CCc1ccsc1-c1ccc(-c2sc(-c3ccc(-c4cc(CCC(=O)O)c(-c5ccc(-c6sccc6CCC(=O)O)s5)s4)s3)cc2CCC(=O)O)s1 [Example 62, 3-(2-{5-[3-(2-Carboxyethyl)-5-{5-[4-(2-carboxyethyl)-5-{5-[3-(2-carboxyethyl)thiophen-2-yl]thiophen-2-yl}thiophen-2-yl]thiophen-2-yl}thiophen-2-yl]thiophen-2-yl}thiophen-3-yl)propanoic acid]",398 nM,++,+++,–,–,–,–
"O=C(O)Cc1cc(-c2ccccc2)sc1-c1ccc(-c2sc(-c3ccccc3)cc2CC(=O)O)s1 [Example 21, 2-(2-{5-[3-(Carboxymethyl)-5-phenylthiophen-2-yl]thiophen-2-yl}-5-phenylthiophen-3-yl)acetic acid]",2510 nM,no,++,no,–,–,–
"O=C(O)Cc1ccsc1-c1ccc(-c2sc(-c3cc(CC(=O)O)c(-c4ccc(-c5sccc5CC(=O)O)s4)s3)cc2CC(=O)O)s1 [Example 17, 2-(2-{5-[3-(Carboxymethyl)-5-[4-(carboxymethyl)-5-{5-[3-(carboxymethyl)thiophen-2-yl]thiophen-2-yl}thiophen-2-yl]thiophen-2-yl]thiophen-2-yl}thiophen-3-yl)acetic acid]",5010 nM,+,no,+++,–,–,–
"O=C(O)Cc1cc(-c2ccc(C(=O)O)cc2)sc1-c1ccc(-c2sc(-c3ccc(C(=O)O)cc3)cc2CC(=O)O)s1 [Example 9, 4-[4-(Carboxymethyl)-5-{5-[3-(carboxymethyl)-5-(4-carboxyphenyl)thiophen-2-yl]thiophen-2-yl}thiophen-2-yl]benzoic acid]",15800 nM,–,++,+++,–,–,–
